According to patent US8987314B2, “Amide, urea or sulfone amide linked benzothiazole inhibitors of endothelial lipase” (Bristol-Myers Squibb Company, priority 2012, dated 2015):

What was measured:
hepatic lipase (HL) = hepatic lipase (HL) (Homo sapiens (Human), UniProt P11150); experiment: HL assay: hepatic lipase activity with fluorescent substrate A10070 in DMPG vesicles; type: biochemical
How it was run: (§1)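 Substrate A10070 sits in sonicated DMPG vesicles at 0.11 mole fraction. Lipase and compound preincubated 30 min, 37° C, in HEPES pH 8.0 buffer with CaCl2.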

Endothelial lipase (EL) = Endothelial lipase (EL) (Homo sapiens (Human), UniProt Q9Y5X9); experiment: EL assay: endothelial lipase activity with fluorescent substrate A10070 in DMPG vesicles; type: biochemical
How it was run: as §1

Sequence of Endothelial lipase (EL) (Q9Y5X9 21-500): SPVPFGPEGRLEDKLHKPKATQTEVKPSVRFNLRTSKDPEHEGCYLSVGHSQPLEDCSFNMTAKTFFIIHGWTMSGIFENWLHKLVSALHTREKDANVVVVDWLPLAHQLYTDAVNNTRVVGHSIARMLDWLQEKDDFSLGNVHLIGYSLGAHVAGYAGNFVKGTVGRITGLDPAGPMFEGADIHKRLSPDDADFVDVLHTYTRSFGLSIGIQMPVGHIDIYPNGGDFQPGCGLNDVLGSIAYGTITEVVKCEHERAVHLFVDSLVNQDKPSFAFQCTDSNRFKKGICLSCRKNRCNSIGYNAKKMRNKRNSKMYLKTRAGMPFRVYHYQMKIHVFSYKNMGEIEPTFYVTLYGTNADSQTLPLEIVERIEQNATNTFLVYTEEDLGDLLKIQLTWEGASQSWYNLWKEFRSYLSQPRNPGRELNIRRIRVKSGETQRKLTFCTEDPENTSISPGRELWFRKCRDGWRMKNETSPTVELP
Sequence of hepatic lipase (HL) (P11150 23-499, species assumed): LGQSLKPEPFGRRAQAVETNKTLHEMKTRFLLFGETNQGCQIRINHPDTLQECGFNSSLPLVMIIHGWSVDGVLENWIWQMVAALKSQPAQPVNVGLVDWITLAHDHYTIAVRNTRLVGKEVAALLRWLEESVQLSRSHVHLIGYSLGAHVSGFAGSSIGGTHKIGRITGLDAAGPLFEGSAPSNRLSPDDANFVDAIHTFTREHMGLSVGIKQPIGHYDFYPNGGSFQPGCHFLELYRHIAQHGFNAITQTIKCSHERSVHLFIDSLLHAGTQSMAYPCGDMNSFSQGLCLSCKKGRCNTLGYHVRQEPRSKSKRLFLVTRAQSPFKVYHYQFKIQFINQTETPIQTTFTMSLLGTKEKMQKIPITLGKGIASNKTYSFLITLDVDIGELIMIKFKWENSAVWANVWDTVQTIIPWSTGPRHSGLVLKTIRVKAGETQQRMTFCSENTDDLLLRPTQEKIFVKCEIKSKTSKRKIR

| SMILES | IC50 (hepatic lipase (HL)) | IC50 (Endothelial lipase (EL)) |
| --- | --- | --- |
| COC1CN(C(=O)c2ccc(-c3ccc4nc(C(C(=O)NCCS(N)(=O)=O)S(=O)(=O)Cc5ccc(OC(F)(F)F)cc5)sc4c3)cc2)C1 (stereo not shown) [Example B300, 2-{6-[4-(3-methoxy-azetidine-1-carbonyl)phen-yl]-1,3-benzothiazol-2-yl}-N-(2-sulfamoyl-ethyl)-2-{[4-(trifluoro-methoxy)phenyl]methane-sulfonyl}acetamide] | 85.1 nM | 5.5 nM |
| COC1CN(C(=O)c2ccc(-c3ccc4nc(C(C(=O)NCCS(N)(=O)=O)S(=O)(=O)CCC(F)(F)F)sc4c3)cc2)C1 (stereo not shown) [Example B301, 2-{6-[4-(3-methoxy-azetidine-1-carbonyl)phen-yl]-1,3-benzothiazol-2-yl}-N-(2-sulfamoyl-ethyl)-2-(3,3,3-trifluoro-propanesulfonyl)acetamide] | 113 nM | 7.8 nM |
| COC1CN(C(=O)c2ccc(-c3ccc4nc(C(C(=O)NCCS(N)(=O)=O)S(=O)(=O)Cc5ccc(F)cc5)sc4c3)cc2)C1 (stereo not shown) [Example B302, 2-[(4-fluorophen-yl)methanesulfonyl]-2-{6-[4-(3-methoxyazetidine-1-carbonyl)phenyl]-1,3-benzothiazol-2-yl}-N-(2-sulfamoylethyl)acetamide] | 52 nM | 7.2 nM |
| NS(=O)(=O)CCNC(=O)C(c1nc2ccc(-c3ccc4c(c3)CNC4=O)cc2s1)S(=O)(=O)Cc1ccc(OC(F)(F)F)cc1 (stereo not shown) [Example B303, 2-[6-(1-oxo-2,3-dihydro-1H-isoindol-5-yl)-1,3-benzothiazol-2-yl]-N-(2-sulfamoylethyl)-2-{[4-(trifluoromethoxy)phen-yl]methanesulfonyl)a-cetamide] | 51.2 nM | 2.5 nM |
| CO[C@H]1CCN(C(=O)c2ccc(-c3ccc4nc(C(C(=O)NCCS(N)(=O)=O)S(=O)(=O)CCC(F)(F)F)sc4c3)cc2)C1 (stereo partly drawn) [Example B304, 2-(6-{4-[(3S)-3-methoxy-pyrrolidine-1-carbonyl]phen-yl}-1,3-benzothiazol-2-yl)-N-(2-sulfamoyl-ethyl)-2-(3,3,3-trifluoro-propanesulfonyl)acetamide] | 16.6 nM | 0.7 nM |
| CS(=O)(=O)C(C(=O)NCCS(N)(=O)=O)c1nc2ccc(-c3ccccc3F)cc2s1 (stereo not shown) [Example B305, 2-[6-(2-fluorophenyl)-1,3-benzothiazol-2-yl]-2-methanesulfonyl-N-(2-sulfamoylethyl)acetamide] | 1 nM | 3 nM |
| COCCS(=O)(=O)C(C(=O)NCCS(N)(=O)=O)c1nc2ccc(-c3ccc(C(=O)N4CC[C@H](OC)C4)cc3)cc2s1 (stereo partly drawn) [Example B306, 2-(2-methoxyethane-sulfonyl)-2-(6-{4-[(3S)-3-methoxypyrrolidine-1-carbonyl]phenyl}-1,3-benzothiazol-2-yl)-N-(2-sulfamoylethyl)acetamide] | 149 nM | 3.8 nM |
| COCCS(=O)(=O)C(C(=O)NCCS(N)(=O)=O)c1nc2cc(-c3ccc(F)nc3)ccc2s1 (stereo not shown) [Example B308, 2-[5-(6-fluoropyridin-3-yl)-1,3-benzothiazol-2-yl]-2-(2-methoxyethane-sulfonyl)-N-(2-sulfamoylethyl)acetamide] | 194 nM | 1.3 nM |
| NS(=O)(=O)CCNC(=O)C(c1nc2cc(-c3ccc(F)nc3)ccc2s1)S(=O)(=O)Cc1ccc(OC(F)(F)F)cc1 (stereo not shown) [Example B309, 2-[5-(6-fluoropyridin-3-yl)-1,3-benzothiazol-2-yl]-N-(2-sulfamoylethyl)-2-{[4-(trifluoromethoxy)phen-yl]methanesulfonyl}a-cetamide] | 67 nM | 0.5 nM |
| NS(=O)(=O)CCNC(=O)C(c1nc2cc(-c3ccc(F)nc3)ccc2s1)S(=O)(=O)Cc1ccc(F)cc1 (stereo not shown) [Example B310, 2-[(4-fluorophenyl)meth-anesulfonyl]-2-[5-(6-fluoropyridin-3-yl)-1,3-benzothiazol-2-yl]-N-(2-sulfamoylethyl)acetamide] | 51.4 nM | 1 nM |
| NS(=O)(=O)CCNC(=O)C(c1nc2cc(-c3ccc(F)nc3)ccc2s1)S(=O)(=O)CCC(F)(F)F (stereo not shown) [Example B311, 2-[5-(6-fluoropyridin-3-yl)-1,3-benzothiazol-2-yl]-N-(2-sulfamoylethyl)-2-(3,3,3-trifluoropropane-sulfonyl)acetamide] | 24.2 nM | 3.1 nM |
| CC(C)S(=O)(=O)C(C(=O)NCCS(N)(=O)=O)c1nc2cc(-c3ccc(F)nc3)ccc2s1 (stereo not shown) [Example B312, 2-[5-(6-fluoropyridin-3-yl)-1,3-benzothiazol-2-yl]-2-(propane-2-sulfonyl)-N-(2-sulfamoylethyl)a-cetamide] | 153 nM | 6.2 nM |
| NS(=O)(=O)CCNC(=O)C(c1nc2ccc(-c3ccc(F)nc3)cc2s1)S(=O)(=O)CCN1CCOCC1 (stereo not shown) [Example B313, 2-[6-(6-fluoropyridin-3-yl)-1,3-benzothiazol-2-yl]-2-[2-(morpholin-4-yl)ethanesulfonyl]-N-(2-sulfamoylethyl)acetamide] | 106 nM | 10.8 nM |
| NS(=O)(=O)CCNC(=O)C(c1nc2ccc(-c3ccc(CO)cc3)cc2s1)S(=O)(=O)CCN1CCOCC1 (stereo not shown) [Example B314, 2-{6-[4-(hydroxymeth-yl)phenyl]-1,3-benzothiazol-2-yl}-2-[2-(morpholin-4-yl)ethanesulfonyl]-N-(2-sulfamoylethyl)acetamide] | 35.1 nM | 16.1 nM |
| NS(=O)(=O)CCNC(=O)C(c1nc2ccc(-c3cncnc3)cc2s1)S(=O)(=O)CCN1CCOCC1 (stereo not shown) [Example B315, 2-[2-(morpholin-4-yl)ethanesulfonyl]-2-[6-(pyrimidin-5-yl)-1,3-benzothiazol-2-yl]-N-(2-sulfamoylethyl)acetamide] | 10000 nM | 55.6 nM |
| NS(=O)(=O)CCNC(=O)C(c1nc2ccc(-c3ccc(C(F)(F)F)nc3)cc2s1)S(=O)(=O)CCN1CCOCC1 (stereo not shown) [Example B316, 2-[2-(morpholin-4-yl)ethanesulfonyl]-N-(2-sulfamoylethyl)-2-{6-[6-(trifluoromethyl)pyridin-3-yl]-1,3-benzothiazol-2-yl}acetamide] | 399 nM | 145 nM |
| CS(=O)(=O)C(C(=O)NCCS(N)(=O)=O)c1nc2ccc(-c3cnn(CCC4CCOCC4)c3)cc2s1 (stereo not shown) [Example B317, 2-methanesulfonyl-2-(6-{1-[2-(oxan-4-yl)ethyl]-1H-pyrazol-4-yl}-1,3-benzothiazol-2-yl)-N-(2-sulfamoylethyl)acetamide] | 391 nM | 13 nM |

Results, then the molecule that gave them:

| IC50 (hepatic lipase (HL)) | IC50 (Endothelial lipase (EL)) | SMILES |
| --- | --- | --- |
| 911 nM | 1.8 nM | CC1(O)CN(C(=O)c2ccc(-c3ccc4nc(C(C(=O)NCCS(N)(=O)=O)S(C)(=O)=O)sc4c3)cc2)C1 (stereo not shown) [Example B318, 2-{6-[4-(3-hydroxy-3-methylazetidine-1-carbonyl)phenyl]-1,3-benzothiazol-2-yl}-2-methanesulfonyl-N-(2-sulfamoylethyl)acetamide] |
| 1000 nM | 4.8 nM | CC1(O)CN(C(=O)c2ccc(-c3ccc4sc(C(C(=O)NCCS(N)(=O)=O)S(C)(=O)=O)nc4c3)cc2)C1 (stereo not shown) [Example B319, 2-{5-[4-(3-hydroxy-3-methylazetidine-1-carbonyl)phenyl]-1,3-benzothiazol-2-yl}-2-methanesulfonyl-N-(2-sulfamoylethyl)acetamide] |
| 1260 nM | 1.9 nM | CC1(O)CN(C(=O)c2ccc(-c3ccc4nc(C(C(=O)NCCS(N)(=O)=O)S(=O)(=O)CCC(F)(F)F)sc4c3)cc2)C1 (stereo not shown) [Example B320, 2-{6-[4-(3-hydroxy-3-methylazetidine-1-carbonyl)phenyl]-1,3-benzothiazol-2-yl}-N-(2-sulfamoylethyl)-2-(3,3,3-trifluoropropanesulfonyl)a-cetamide] |
| 175 nM | 0.6 nM | CS(=O)(=O)C(C(=O)NCCS(N)(=O)=O)c1nc2cc(-c3ccc(C(=O)N4CC(F)(F)C4)cc3)ccc2s1 (stereo not shown) [Example B321, 2-{5-[4-(3,3-difluoroazetidine-1-carbonyl)phenyl]-1,3-benzothiazol-2-yl}-2-methanesulfonyl-N-(2-sulfamoylethyl)acetamide] |
| 37.4 nM | 2.4 nM | CC1(O)CN(C(=O)c2ccc(-c3ccc4nc(C(C(=O)NCCS(N)(=O)=O)S(=O)(=O)Cc5ccc(C(F)(F)F)cc5)sc4c3)cc2)C1 (stereo not shown) [Example B322, 2-{6-[4-(3-hydroxy-3-methylazetidine-1-carbonyl)phenyl]-1,3-benzothiazol-2-yl}-N-(2-sulfamoylethyl)-2-{[4-(trifluoromethyl)phen-yl]methanesulfonyl}a-cetamide] |
| 81.7 nM | 2.6 nM | CC1(O)CN(C(=O)c2ccc(-c3ccc4nc(C(C(=O)NCCS(N)(=O)=O)S(=O)(=O)Cc5ccc(OC(F)(F)F)cc5)sc4c3)cc2)C1 (stereo not shown) [Example B323, 2-{6-[4-(3-hydroxy-3-methylazetidine-1-carbonyl)phenyl]-1,3-benzothiazol-2-yl}-N-{2-sulfamoylethyl)-2-{[4-(trifluoromethoxy)phen-yl]methanesulfonyl}a-cetamide] |
| 58.1 nM | 9.1 nM | NS(=O)(=O)CCNC(=O)C(c1nc2ccc(-c3ccc(C(=O)N4CCC(F)(F)C4)cc3)cc2s1)S(=O)(=O)Cc1ccc(OC(F)(F)F)cc1 (stereo not shown) [Example B324, 2-{6-[4-(3,3-difluoropyrrolidine-1-carbonyl)phen-yl]-1,3-benzothiazol-2-yl}-N-(2-sulfamoyl-ethyl)-2-{[4-(trifluoro-methoxy)phen-yl]methanesulfonyl}a-cetamide] |
| 104 nM | 1.2 nM | Cc1cc2nc(C(C(=O)NCCS(N)(=O)=O)S(=O)(=O)Cc3ccccc3)sc2cc1-c1ccc(C(=O)O)cc1 (stereo not shown) [Example B325, 4-(5-methyl-2-{phen-ylmethanesulfonyl[(2-sulfa-moylethyl)carbamoyl]meth-yl}-1,3-benzothiazol-6-yl)benzoic acid] |
| 201 nM | 1.6 nM | Cc1cc2nc(C(C(=O)NCCS(N)(=O)=O)S(C)(=O)=O)sc2cc1-c1ccc(C(=O)O)cc1 (stereo not shown) [Example B326, 4-(2-{methanesulfonyl[(2-sulfamoylethyl)carba-moyl]methyl}-5-methyl-1,3-benzothiazol-6-yl)benzoic acid] |
